In patent US20240041813A1, “VERY-LONG-CHAIN POLYUNSATURATED FATTY ACIDS, ELOVANOID HYDROXYLATED DERIVATIVES, AND METHODS OF USE” (priority 2020, published 2024):
Entries after “also recorded” stand apart in the source; their conditions may differ.

Tests used:
human alveolar cells = experiment: Fate of added VLC-PUFAs in human bronchiole/alveoli cell cultures (LC-MS/MS); conditions: human lung cell cultures; paired with FA18:1 or FA18:0
[1] = tested on: receptor-binding domain (RBD) of the SARS-CoV-2 spike; type: cell-based, human
ACE2 [2] = experiment: Rat cornea alkali burn: corneal RNA-seq, Ace2 gene expression; type: in vivo; conditions: rat cornea after alkali burn, eye drops 3 times/day for 14 days, RNA-seq day 14
Experimental: (§1) The rats were anesthetized by intraperitoneal injection of Ketamine (50-100 mg/kg) plus xylazine (5-10 mg/kg). A 4 mm diameter filter paper soaked in 1 N NaOH was placed on the central cornea of the right eye for 45 seconds, and then the eye was thoroughly washed with […] of saline. After injury, the rats were randomly divided into five treatment groups: vehicle; lipoxin A4 (LXA4) from Cayman Chemical (Ann Arbor, MI, USA); R,R Resolvin D6 isomer (RvD6i), R,R neuroprotection D (NPD1), and elovanoid (ELV)-N32. All lipid solutions were prepared at the final concentration of […] using PBS with the minimal contamination of ethanol by evaporating the ethanol and immediately dissolve the lipids in PBS, then vortex well for 2 min. Topical administration (20 μl) was done 3×/day for 14 days. The experiments were double-blinded with the lipid mediators coded during the whole experiments. At the end of the study, when all data was collected, the code was opened.
(§2) Injured corneas (n=5/condition) were harvested and homogenized with TRIzol (Thermo Fisher Scientific) on ice with a glass Dounce homogenizer. RNA sequencing was performed as described^14. Briefly, after mRNA extraction and determination of purity, 8 ng of total RNA was reverse transcribed, and total cDNAs were amplified using ISPCR primer, and the library was made with the Nextera XT DNA library preparation kit (Illumina, San Diego, CA, USA). The libraries were pooled with the same molarity and sequenced using the NextSeq 500/550 High Output Kit v2 (75 cycles, Illumina). After demultiplexing, RNA-seq data were aligned to the Rattus Norvegicus reference genome (.ensembl.org/pub/release-98/fasta/rattus_norvegicus/dna/) using the Subread package v2.0.1 alignment function39. The BAM files for sequencing data alignment were counted using featureCounts function of Subread tool^40 using the macOS Catalina. The raw count data were subjected to differential gene expression analysis using DESeq2 package for R^41 with the vehicle group as reference. The adjusted p-values were named as the false discover rate (FDR).

Alexa 594-RBD [3] = type: in vivo; conditions: rat cornea after alkali burn; 14 days treatment; Alexa 594-RBD 1 μg/eye, 3 times at day 15, examined a day later
Cdkn2a (p16INK4a) = experiment: HCEC challenged with IFNγ: Cdkn2a gene expression; type: cell-based, human; conditions: IFNγ 100 ng/ml
Description: All experiments with human corneal epithelial cells were approved by the Institutional Review Board of LSUHNO and conducted in accordance with NIH guidelines. HCEC were kept frozen in the laboratory at passage 2544. Cells were maintained in keratinocyte growth (KGM) medium containing the keratinocyte basal medium (KBM) (Lonza: CC-3101) supplemented with bovine pituitary extract (BPE), hEGF, Insulin, Hydrocortisone and Gentamicin Sulfate-Amphotericin (GA-1000) (Lonza, Cat. CC-4131). For all experiments, cells were seeded at 30,000 cells/cm2.
(§3) For screening the stimulation of receptor ACE2 by cytokines, the HCEC were cultured with KGM until 50-60% confluence. Then, changed to KBM containing IL-1β, -2, -6 and 8, IFN-α, -ε, and -γ or TNFα at 1, 10 or 100 ng/ml. The cells were harvested after 6 hours and analyze for the gene expression of Ace2. In other experiments, HCEC were stimulated with IFNγ, and thereafter, lipid mediators were added. For the Alexa 594-conjugated RBD binding, IFNγ was used as a cytokine trigger. At 12 hours after cytokine exposure and lipid mediator treatments, […] of labeled RBD was added to the medium. The evaluation of RBD binding was conducted 24 hours after.
Quantitative PCR was performed with the Biomark HD system (Fluidigm, San Francisco, CA, USA). Briefly, 200 ng of RNA was reverse-transcribed using iScript Reverse Transcription Supermix (Bio-Rad), and the cDNA was pre-amplified using the PreAmp Master Mix (PN 100-5580; Fluidigm). The cDNA was then subjected to Exonuclease I treatment and diluted 5 times in TE Buffer. The qPCR reaction mixture and primer reaction mixture were made and loaded into the Biomark 96.96 IFC™ (Integrated Fluidic Circuit). The enzyme reaction was mixed using Juno™ Controller (Fluidigm) and run using the cycling program of (i) 70° C. for 40 minutes followed by 60° C. for 30 seconds, (ii) hot start for 1 minute at 95° C., (iii) 30 cycles of denaturation at 96° C. for 5 seconds, and annealing at 60° C. for 20 seconds, and (iv) melting curves between 60° C. and 95° C. with 1° C. increments/3 seconds. The Ct value of target genes was normalized to the house-keeping genes Gapdh, Hprt1, and Tfrc before normalized to the vehicle group. Relative fold changes from the ΔΔCT calculation was used to make the graph.

ACE2 [4] = experiment: Rat cornea alkali burn: ACE2 abundance by Jess capillary-based Western Blot; type: in vivo; conditions: rat cornea after alkali burn, eye drops 20 μl/eye, 3 times/day for 14 days, day 14
Description: Sprague-Dawley rats (8-week-old male) were obtained from Charles River Laboratories (Wilmington, MA, USA) and kept at the Animal Care of the Neuroscience Center of Excellence, Louisiana State University Health (LSUH; New Orleans, LA, USA). All animals were handled in compliance with the guidelines of the ARVO Statement for the Use of Animals in Ophthalmic and Vision Research, and the experimental protocol was approved by the Institutional Animal Care and Use Committee (IACUC) at LSUH.
as §1
Briefly, samples were lysed with RIPA buffer containing a protease inhibitor cocktail (Sigma, Cat. P8340). Cell debris was removed after 10 min centrifugation at 16,000×g. Protein concentration was determined by BCA assay (Thermo Fisher Scientific, Cat. 23225) and 1 μg used/reaction. Fluorescent Master Mix was mixed with 40 mM DTT, and the mixture was added to each sample to provide a denaturing and reducing environment. Samples were heated at 95° C./5 min, and 3 μL of each sample were loaded. The 12-230 kDa cartridge (Protein Simple—#SM-W004) was used. Primary antibodies were diluted in antibody diluent 2 buffer (Protein Simple, #042-203) while the working solution of secondary antibodies was provided by the company (Protein Simple, #042-206). Then, the filled plate was spin-down for 10 min at 1,000×g to remove bubbles and plate, and capillaries were loaded into the Jess machine. For data analysis, the area of spectra that matched the molecular weight of the target protein was used. To reduce the coefficient variant, we analyzed the GAPDH for each capillary. The ratio of the targeted protein to GAPDH was used for statistical comparisons. For visualization, the artificial lanes generated from spectra volume was used.

injured rat cornea = experiment: Rat cornea alkali burn: corneal RNA-seq, cytokine storm, NFkB/inflammation, senescence, integrin and protease genes; type: in vivo; conditions: for availability of ACE2, TMPRSS2 and Furin increased after alkali burn: rat cornea after alkali burn, RNA-seq, ACE2 and Furin confirmed by JESS (Example 15)
Experimental: as §1, §2

[5] = tested on: human corneal epithelial cells (HCEC); experiment: HCEC challenged with IFNγ: SASP secretome (β-Gal staining); type: cell-based; conditions: HCEC 24 h after IFN-γ challenge
Alexa 594-RBD [6] = experiment: HCEC challenged with IFNγ: Alexa 594-RBD binding (unbiased imaging, Imaris); type: cell-based, human; conditions: IFNγ 100 ng/ml and lipid mediators 200 nM for 12 h, images 24 h after RBD
Experimental: as §3
Twenty-four hours after Alexa 594-RBD was added to the HCEC, the cells were washed with PBS (3×/5 min) and fixed with 4% paraformaldehyde for 30 minutes at RT. The HCEC were washed 2× with PBS and stained with Hoechst 33342 Solution (ThermoFisher Scientific, Cat. 62249) for 30 minutes at RT. Next, the HCEC were washed 2× with PBS before imaging. For unbiased data collection, 7 designated areas were defined in each well (FIG. 63) and captured with an Olympus FV3000 confocal laser scanning microscopy under “Multi Area Time Lapse” (MATL) mode. All images were acquired with the same parameters and Z-section range, converted and inputted in the Imaris software version 9.5.1. The threshold for the control images was defined by the HCEC without Alexa 594-conjugated RBD of S protein and using it as a threshold filter for the Imaris batch image processing function. The sum of total intensity for each image was used to evaluate the binding efficiency.

ACE2 [7] = experiment: Cytokine screening for stimulation of Ace2 in HCEC (dd-PCR); type: cell-based, human; conditions: cytokine at 1, 10, and 100 ng/mL, 6 hours

For CC/C=C\C/C=C\C/C=C\C/C=C\C/C=C\C/C=C\CCCCCCCCCCCCC(=O)O [32:6, (14Z,17Z,20Z,23Z,26Z,29Z)-dotriaconta-14,17,20,23,26,29-hexaenoic acid], the “incorporation in phosphatidylcholine molecular species” value (human alveolar cells) was “incorporated” and the “RBD protein internalization (RBD located below the membrane line)” value [1] was “decrease; also recorded: reduces”.

CC/C=C\C/C=C\C/C=C\C/C=C\C/C=C\C/C=C\CCCCCCCCCCCCCCC(=O)O [34:6, (16Z,19Z,22Z,25Z,28Z,31Z)-tetratriaconta-16,19,22,25,28,31-hexaenoic acid] was tested, and the “incorporation in phosphatidylcholine molecular species” value (human alveolar cells) was “incorporated” and the “RBD protein internalization (RBD located below the membrane line)” value [1] was “decrease; also recorded: reduces”.

For CC/C=C\C[C@H](O)\C=C/C=C/C=C/[C@H](O)C/C=C\C/C=C\CCCCCCCCCCCCC(=O)OC [ELV32 methyl ester, methyl (14Z,17Z,20R,21E,23E,25Z,27S,29Z)-20,27-dihydroxydotriaconta-14,17,21,23,25,29-hexaenoate], the “RBD of the SARS-CoV-2 spike entrance / internalized RBD” value [1] was “downregulated”.

For CC/C=C\C[C@H](O)C#C/C=C/C=C/[C@H](O)C/C=C\C/C=C\CCCCCCCCCCCCC(=O)OC [ELV 32(AC) acetylenic methyl ester, methyl (14Z,17Z,20R,21E,23E,27S,29Z)-20,27-dihydroxydotriaconta-14,17,21,23,29-pentaen-25-ynoate], the “RBD of the SARS-CoV-2 spike entrance / internalized RBD” value [1] was “downregulated”.

With CCCCC[C@@H](O)/C=C/C=C\C=C\C=C\[C@@H](O)[C@@H](O)CCCC(=O)O [LXA4, reference compound] the “Ace2 gene expression levels” value (ACE2 [2]) was “decrease”, the “Ace2 gene expression levels” value (ACE2 [2]; listed as Lipoxin A4) was “downregulates” and the “binding of Alexa 594-RBD to injured cornea” value (Alexa 594-RBD [3]) was “decrease; also recorded: counteracted; also recorded: significant effect”. The Cdkn2a activation (Cdkn2a (p16INK4a)) was “does not”, the “ACE2 abundance (protein, normalized to GAPDH)” value (ACE2 [4]) was “decrease” and the “ACE2 abundance (protein, normalized to GAPDH)” value (ACE2 [4]; listed as Lipoxin A4) was “downregulates”. The “availability of ACE2, TMPRSS2 and Furin increased after alkali burn” value (injured rat cornea) was “remarkable blocked”, the “availability of ACE2, TMPRSS2 and Furin increased after alkali burn” value (injured rat cornea; listed as Lipoxin A4) was “downregulates” and the “Il6 and Vegfa expression” value (injured rat cornea; rat cornea, RNA-seq 14 days after injury) was “reduced”. The “senescence programming genes and SASP secretome activation (β-Gal)” value [5] was “not”.

In the case of CC/C=C\C[C@H](O)\C=C/C=C/C=C/[C@H](O)C/C=C\C/C=C\CCC(=O)O [NPD1], the “binding of Alexa 594-RBD to injured cornea” value (Alexa 594-RBD [3]) is reported as “fails; also recorded: did not have an effect; also recorded: failed to decrease”, the “IFNγ-stimulated Alexa 594-RBD binding” value (Alexa 594-RBD [6]) is reported as “decrease; also recorded: attenuated” and the Cdkn2a activation (Cdkn2a (p16INK4a)) is reported as “decrease”. For the same molecule, the “ACE2 abundance (protein, normalized to GAPDH)” value (ACE2 [4]) was “failed to decrease; also recorded: no effect” and the “senescence programming genes and SASP secretome activation (β-Gal)” value [5] was “blocked”.

CC/C=C\C[C@H](O)/C=C/C=C\C/C=C\C/C=C\C=C\[C@@H](O)CCC(=O)O [RvD6, reference compound] was tested, and the “IFNγ-stimulated Alexa 594-RBD binding” value (Alexa 594-RBD [6]) was “decrease”.

IL1β was tested, and the “Ace2 expression (dd-PCR)” value (ACE2 [7]) was “no significant increase” and the “internalized RBD signal” value [1] was “increased”.

With IL6 the “Ace2 expression (dd-PCR)” value (ACE2 [7]) was “no significant increase”.

In the case of IL8, the “Ace2 expression (dd-PCR)” value (ACE2 [7]) is reported as “no significant increase”.

With TNFα the “Ace2 expression (dd-PCR)” value (ACE2 [7]) was “no significant increase” and the “internalized RBD signal” value [1] was “increased”.

B1: IFNε (protein, UniProt Q86WN2 22-208, looked up)
Interferon epsilon: LDLKLIIFQQRQVNQESLKLLNKLQTLSIQQCLPHRKNFLLPQKSLSPQQYQKGHTLAILHEMLQQIFSLFRANISLDGWEENHTEKFLIQLHQQLEYLEALMGLEAEKLSGTLGSDNLRLQVKMYFRRIHDYLENQDYSTCAWAIVQVEISRCLFFVFSLTEKLSKQGRPLNDMKQELTTEFRSPR
For B1, the “Ace2 expression (dd-PCR)” value (ACE2 [7]) was “no significant increase”.

B2: IFNγ (protein, UniProt P01579 24-161, looked up)
Interferon gamma: QDPYVKEAENLKKYFNAGHSDVADNGTLFLGILKNWKEESDRKIMQSQIVSFYFKLFKNFKDDQSIQKSVETIKEDMNVKFFNSNKKKRDDFEKLTNYSVTDLNVQRKAIHELIQVMAELSPAAKTGKRKRSQMLFRG
With B2 the “Ace2 expression (dd-PCR)” value (ACE2 [7]) was “activate”.
